Assay results taken from patent US12642759B2, “Cosmetic composition for improving skin containing extracts of polygala tenuifolia, angelica dahurica and elsholtzia splendens” (SOOY-K CO., LTD., priority 2023, dated 2026).

How the values were obtained:
[1] = ABTS radical scavenging assay; type: biochemical; details: concentration 50 μg/mL, positive control
Description: Antioxidant activity was measured using […] (ABTS) radical with reference to the Van den Berg method. This method uses the principle that ABTS+ radical, which has a blue-green color, is made to be transparent by antioxidants. 7 mM ABTS and 2.4 mM potassium persulfate were mixed and left at room temperature in the dark for 24 hours to form ABTS. Absorbance was measured at 734 nm, and the material was used for the experiment after adjusting the absorbance to 0.7±0.1. 100 μL of ABTS working solution and 100 μL of samples of each concentration were mixed and reacted in the dark for 10 minutes. Then, the absorbance was measured at […] and the radical scavenging activity was calculated as shown in Equation 2 below. Ascorbic acid, an antioxidant, was used as a positive control, and an ABTS solution which was not treated with a sample was used as a negative control. [formula] 1-5. Cell Culture

[2] = DPPH radical scavenging assay; type: biochemical; details: concentration 50 μg/mL, positive control
Description: Antioxidant efficacy was measured by DPPH radical scavenging activity based on the Blois' method. This assay is one of the generation methods. DPPH is purple in the radical state, and when reduced by receiving electrons, it changes its color to yellow (DPPH-H). 100 μL of 0.2 mM DPPH solution and 80 μL of samples of each concentration were mixed in a 96-well plate, reacted for 30 minutes at room temperature in the dark, and then absorbance was measured at 517 nm to calculate radical scavenging activity according to Equation 1 below. Ascorbic acid, an antioxidant, was used as a positive control, and a DPPH solution which was not treated with a sample was used as a negative control. [formula] ABTS Radical Scavenging Assay

Staphylococcus aureus = assay: Antibacterial activity, paper disc method; type: cell-based; details: 4 mg/mL, positive control, 8 mm paper disc, read-out: Clear zone
Description: The antibacterial effect was measured against Staphylococcus aureus (S. aureus). The paper disc method was used to measure the antibacterial activity of the samples. Each strain cultured on a solid plate medium was taken by a platinum loop, then inoculated into a 4 mL liquid medium, and cultured for 20 hours to activate it. Then, 500 μL of the strain was inoculated into 3 mL of liquid medium and cultured for 4 hours. The strain was inoculated onto a solid plate medium so that the number of bacteria was 1×10^6-5×10^6/mL, and then spread evenly using a spreader. Each sample was prepared according to the concentrations, and 50 μL of the sample was absorbed into a paper disc (Toyo, Japan) with a diameter of 8 mm. The paper disc was placed on a solid plate medium inoculated with the strain and cultured at 37° C. for 20 hours. Then, the diameter of the clear zone around the disc was measured. Disc diffusion test is performed by placing a disc into which a sample was absorbed on an agar plate medium inoculated with bacteria and culturing them, and then measuring the diameter of the inhibition zone (clear zone) of the sample that diffused around the disc as much as it inhibited the growth of the bacteria.

SMILES	ABTS radical scavenging activity (antioxidant activity) [1]	DPPH radical scavenging activity (antioxidant activity) [2]	zone of inhibition at 4000 µg/mL (Staphylococcus aureus)
O=C1O[C@H]([C@@H](O)CO)C(O)=C1O [Ascorbic acid, ascorbic acid]	99.68±0.21%	87.21±0.56%	–
COC(=O)c1ccc(O)cc1 [Methyl paraben]	–	–	8.5 mm
